Laboratory results reported in ChEMBL document CHEMBL1134355 (J Med Chem, 2001).
pIC50: −log10 of the molar value.

Experiments:
[1] = molecular target: T1, Steroid 17-alpha-hydroxylase/17,20 lyase (Homo sapiens, UniProt P05093)
T1 sequence (P05093 whole entry): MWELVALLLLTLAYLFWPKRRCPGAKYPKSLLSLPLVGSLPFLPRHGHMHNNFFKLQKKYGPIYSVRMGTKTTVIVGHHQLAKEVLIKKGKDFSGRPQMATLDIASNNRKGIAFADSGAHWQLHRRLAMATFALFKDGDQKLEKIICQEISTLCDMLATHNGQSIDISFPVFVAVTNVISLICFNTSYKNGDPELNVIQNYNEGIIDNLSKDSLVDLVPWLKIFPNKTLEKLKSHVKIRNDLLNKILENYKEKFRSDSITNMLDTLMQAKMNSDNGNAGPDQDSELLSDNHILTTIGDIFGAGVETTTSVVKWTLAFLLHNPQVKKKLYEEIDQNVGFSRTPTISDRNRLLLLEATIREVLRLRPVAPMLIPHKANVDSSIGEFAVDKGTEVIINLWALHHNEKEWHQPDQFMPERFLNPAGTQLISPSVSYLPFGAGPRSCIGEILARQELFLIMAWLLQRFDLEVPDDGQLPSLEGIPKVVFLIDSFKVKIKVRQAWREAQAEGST

[2] = molecular target: T1, Steroid 17-alpha-hydroxylase/17,20 lyase; remark: listed apart in the source
[3] = species on record: Homo sapiens
[4] = molecular target: T2, Aromatase (Homo sapiens, UniProt P11511)
T2 sequence (P11511 whole entry): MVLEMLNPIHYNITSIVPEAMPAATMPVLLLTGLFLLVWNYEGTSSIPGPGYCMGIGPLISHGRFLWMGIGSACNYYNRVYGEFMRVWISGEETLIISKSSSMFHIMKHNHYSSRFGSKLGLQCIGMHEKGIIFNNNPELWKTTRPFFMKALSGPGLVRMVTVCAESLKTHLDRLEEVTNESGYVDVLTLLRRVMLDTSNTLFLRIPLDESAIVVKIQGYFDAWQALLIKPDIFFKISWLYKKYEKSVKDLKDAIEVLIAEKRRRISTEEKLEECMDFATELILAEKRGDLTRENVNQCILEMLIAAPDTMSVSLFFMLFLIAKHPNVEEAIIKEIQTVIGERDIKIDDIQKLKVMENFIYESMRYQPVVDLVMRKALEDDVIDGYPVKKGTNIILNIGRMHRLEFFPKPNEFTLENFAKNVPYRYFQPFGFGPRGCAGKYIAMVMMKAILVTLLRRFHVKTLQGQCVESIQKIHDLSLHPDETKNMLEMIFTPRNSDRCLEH

SMILES	inhibition at 2.5 µM [1] [%]	pIC50 [2]	Km [3] [µM]	inhibition at 25 µM [4] [%]
N#Cc1ccc(Cn2ccnc2)c2oc3ccccc3c(=O)c12	14	–	–	–
O=c1ccoc2c(Cn3ccnc3)ccc(Br)c12	26	–	–	–
COc1ccc2c(=O)c(Cn3ccnc3)c(-c3ccccc3)oc2c1	44	–	–	–
O=c1c2ccccc2oc2cc(Cn3ccnc3)ccc12	33	–	–	–
O=c1c2ccccc2oc2c(Cn3ccnc3)ccc(Br)c12	38	–	–	–
N#Cc1ccc(Cn2ccnc2)c2c(=O)c3ccccc3oc12	92	6.66	–	–
O=c1c2ccccc2oc2c(Br)ccc(Cn3ccnc3)c12	98	7.38	–	–
O=c1c2ccccc2oc2c([N+](=O)[O-])ccc(Cn3ccnc3)c12	94	6.89	–	–
O=c1ccoc2c(Cn3ccnc3)ccc([N+](=O)[O-])c12	5	–	–	–
O=c1c2ccccc2oc2c(Cn3ccnc3)ccc([N+](=O)[O-])c12	4	–	0.0651	–
O=c1ccoc2cc(Cn3ccnc3)ccc12	9	–	–	–
COc1ccc2c(=O)c(Cn3cnnc3)c(-c3ccccc3)oc2c1	14	–	–	21
O=c1ccoc2cc(Cn3cnnc3)ccc12	5	–	–	–
O=c1c2ccccc2oc2cc(Cn3cnnc3)ccc12	8	–	–	27
N#Cc1ccc(Cn2ccnc2)c2occc(=O)c12	3	–	–	–
